Tests used:
[1] = target: Carbonic anhydrase 1 (Homo sapiens, UniProt P00915); assay: Inhibition of human carbonic anhydrase-1 pre-incubated for 15 mins by stopped-flow CO2 hydration assay based Lineweaver-Burk plot method
[2] = target: Carbonic anhydrase 2 (Homo sapiens, UniProt P00918); assay: Inhibition of human carbonic anhydrase-2 pre-incubated for 15 mins by stopped-flow CO2 hydration assay based Lineweaver-Burk plot method
[3] = target: Carbonic anhydrase 12 (Homo sapiens, UniProt O43570); assay: Inhibition of human carbonic anhydrase-12 pre-incubated for 15 mins by stopped-flow CO2 hydration assay based Lineweaver-Burk plot method
[4] = target: Carbonic anhydrase 9 (Homo sapiens, UniProt Q16790); assay: Inhibition of human carbonic anhydrase-9 pre-incubated for 15 mins by stopped-flow CO2 hydration assay based Lineweaver-Burk plot method
[5] = system: MCF7; assay: Cytotoxic activity against human MCF7 cells assessed as reduction in cell viability incubated for 24 hrs by MTT assay; format: functional, cell-based; details: MCF7, 24 h
[6] = system: MDA-MB-231; assay: Cytotoxic activity against human MDA-MB-231 cells assessed as reduction in cell viability incubated for 24 hrs by MTT assay; format: functional, cell-based; details: MDA-MB-231, 24 h
[7] = system: MCF7; assay: Inhibition of DNA synthesis in human MCF7 cells assessed as reduction in [3H]-thymidine incorporation incubated for 24 hrs by liquid scintillation counting method; format: functional, cell-based
[8] = system: MDA-MB-231; assay: Inhibition of DNA synthesis in human MDA-MB-231 cells assessed as reduction in [3H]-thymidine incorporation incubated for 24 hrs by liquid scintillation counting method; format: functional, cell-based

Carbonic anhydrase 12, sequence (O43570 whole entry): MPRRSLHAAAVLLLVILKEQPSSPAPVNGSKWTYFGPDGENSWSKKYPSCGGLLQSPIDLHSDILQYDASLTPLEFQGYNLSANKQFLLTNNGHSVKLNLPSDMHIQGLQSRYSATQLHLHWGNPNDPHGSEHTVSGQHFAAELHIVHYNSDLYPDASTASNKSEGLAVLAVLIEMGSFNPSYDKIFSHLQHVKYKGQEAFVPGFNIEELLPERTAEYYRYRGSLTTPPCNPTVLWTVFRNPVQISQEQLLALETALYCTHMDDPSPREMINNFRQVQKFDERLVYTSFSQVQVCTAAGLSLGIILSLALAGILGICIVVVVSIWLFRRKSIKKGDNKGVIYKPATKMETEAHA
Carbonic anhydrase 1, sequence (P00915 whole entry): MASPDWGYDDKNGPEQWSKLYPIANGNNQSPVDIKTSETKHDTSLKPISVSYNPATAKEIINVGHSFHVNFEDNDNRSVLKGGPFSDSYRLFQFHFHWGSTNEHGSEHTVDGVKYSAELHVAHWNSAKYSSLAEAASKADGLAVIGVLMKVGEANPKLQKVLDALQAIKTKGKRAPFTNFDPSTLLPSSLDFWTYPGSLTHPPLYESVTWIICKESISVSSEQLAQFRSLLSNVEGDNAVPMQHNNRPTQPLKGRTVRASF

Row | SMILES | Ki [1] [nM] | Ki [2] [nM] | Ki [3] [nM] | Ki [4] [nM] | IC50 [5] [nM] | IC50 [6] [nM] | IC50 [7] [nM] | IC50 [8] [nM]
1 | CCOc1ccc(S(N)(=O)=O)cc1-c1nnc2c(n1)c(C)nn2-c1ccc(C)cc1 | 4490 | 7070 | 77.5 | – | – | – | – | –
2 | CCOc1ccc(S(=O)(=O)N2CCNCC2)cc1-c1nnc2c(n1)c(C)nn2-c1ccc(Cl)cc1 | 4220 | > 50000 | 93.1 | – | – | – | – | –
3 | CCOc1ccc(S(=O)(=O)NCCO)cc1-c1nnc2c(n1)c(C)nn2-c1ccc(C)cc1 | 605 | > 50000 | 91.5 | 24.5 | – | – | – | –
4 | CCOc1ccc(S(=O)(=O)NC[C@H](C)O)cc1-c1nnc2c(n1)c(C)nn2-c1ccc(C)cc1 | 810 | > 50000 | 82.8 | 13.8 | > 200000 | > 200000 | > 200000 | > 200000
5 | CCOc1ccc(S(=O)(=O)N[C@H](C)CC)cc1-c1nnc2c(n1)c(C)nn2-c1ccc(C)cc1 | 3720 | > 50000 | 70.3 | 26.6 | > 200000 | > 200000 | > 200000 | > 200000
6 | CCOc1ccc(S(=O)(=O)N2CCN(C)CC2)cc1-c1nnc2c(n1)c(C)nn2-c1ccc(S(=O)(=O)N2CCN(C)CC2)cc1 | 467 | > 50000 | 536 | 29.6 | > 200000 | > 200000 | > 200000 | > 200000
7 | CCOc1ccc(S(=O)(=O)NC[C@@H](C)O)cc1-c1nnc2c(n1)c(C)nn2-c1ccc(C)cc1 | 798 | > 50000 | 77.8 | 35.6 | > 200000 | > 200000 | > 200000 | > 200000
8 | CCOc1ccc(S(=O)(=O)N2CCN(C)CC2)cc1-c1nnc2c(n1)c(C)nn2-c1ccc(S(=O)(=O)N2CCN(C)CC2)c(Cl)c1 | 571 | > 50000 | 79.4 | 417 | – | – | – | –
9 | CCOc1ccc(S(=O)(=O)N[C@@H](C)CC)cc1-c1nnc2c(n1)c(C)nn2-c1ccc(C)cc1 | 3440 | > 50000 | 77.6 | 27.7 | > 200000 | > 200000 | > 200000 | > 200000
10 | CCOc1ccc(S(=O)(=O)N2CCN(C)CC2)cc1-c1nnc2c(n1)c(C)nn2-c1ccc(Cl)cc1 | 854 | > 50000 | 81.5 | 403 | > 200000 | > 200000 | > 200000 | > 200000
11 | CCOc1ccc(S(=O)(=O)N2CCN(C)CC2)cc1-c1nnc2c(n1)c(C)nn2-c1ccc(C)cc1 | 330 | > 50000 | 78.1 | 25.4 | – | – | – | –

Source: ChEMBL document CHEMBL3585250, “New pyrazolo[4,3-e][1,2,4]triazine sulfonamides as carbonic anhydrase inhibitors” (Bioorg Med Chem, 2015)
